Assay results taken from patent US12686680B2, “Substituted pyrazolo[1,5-α]pyrimidines as CRF receptor antagonists” (Neurocrine Biosciences, Inc., priority 2019, dated 2026).
Structures can show the parent of a compound that is named as a salt.

How the values were obtained:
[1] = Solubility determination of Compound 1 Form I in various vehicles (Example 60); format: physicochemical
Description: The solubility of Compound 1 Form I was evaluated in various vehicles in an attempt to achieve doses of 0.5 mg/mL (IV) and 1.0 mg/mL (PO). […] Vortex mixing and sonication were used to dissolve particles, then samples were transferred to 0.22 μm nylon centrifuge tube filters and centrifuged for approximately 2 minutes @10,000 rpm. All samples were diluted with the method diluent (if necessary) and analyzed by HPLC providing the results shown in the below Table.

[2] = Solubility determination of solid forms of Compound 1 in solvents (Example 52); format: physicochemical
From the text: X-Ray Powder diffraction (XRPD), differential scanning calorimetry (DSC), thermal gravimetric analysis (TGA), and UV-Metric/pH-Metric Titration (SiriusT3) were used to characterize Form I of Compound 1. UPLC was used to evaluate solubility of each material in various vehicles.

CCCN(Cc1ccc(-c2csc(N(C)C)n2)cc1)c1cc(C)nc2c(-c3cnc(N(C)C)cc3C)c(C)nn12 [Compound 1 Form I, 5-{7-[({4-[2-(dimethylamino)-1,3-thiazol-4-yl]phenyl}methyl)(propyl)amino]-2,5-dimethylpyrazolo[1,5-a]pyrimidin-3-yl}-N,N,4-trimethylpyridin-2-amine]
Final/Actual pH ([1]; 50 mM Citrate, pH 2): 3.1
Solubility <USP 34> ([1]; 50 mM Citrate, pH 2): Slightly Soluble
[Compound 1] ([1]; 50 mM Citrate, pH 2): 3.3 mg/mL
Final/Actual pH ([1]; 50 mM Citrate, pH 3): 3.3
Solubility <USP 34> ([1]; 50 mM Citrate, pH 3): Slightly Soluble
[Compound 1] ([1]; 50 mM Citrate, pH 3): 1.7 mg/mL
Final/Actual pH ([1]; 50 mM Citrate, pH 4): 4.1
Solubility <USP 34> ([1]; 50 mM Citrate, pH 4): Practically
[Compound 1] ([1]; 50 mM Citrate, pH 4): ~0 mg/mL
Final/Actual pH ([1]; 50 mM Citrate, pH 5): 5.0
Solubility <USP 34> ([1]; 50 mM Citrate, pH 5): Practically
[Compound 1] ([1]; 50 mM Citrate, pH 5): ~0 mg/mL
Final/Actual pH ([1]; 50 mM Citrate, pH 6): 6.1
Solubility <USP 34> ([1]; 50 mM Citrate, pH 6): Practically
[Compound 1] ([1]; 50 mM Citrate, pH 6): ~0 mg/mL
Final/Actual pH ([1]; 50 mM Citrate, pH 7): 7.1
Solubility <USP 34> ([1]; 50 mM Citrate, pH 7): Practically
[Compound 1] ([1]; 50 mM Citrate, pH 7): ~0 mg/mL
Final/Actual pH ([1]; 50 mM Phosphate, pH 8): 8.1
Solubility <USP 34> ([1]; 50 mM Phosphate, pH 8): Practically
[Compound 1] ([1]; 50 mM Phosphate, pH 8): Below
Final/Actual pH ([1]; 1% Poloxamer 188 in Water): 8.0
Solubility <USP 34> ([1]; 1% Poloxamer 188 in Water): Practically
[Compound 1] ([1]; 1% Poloxamer 188 in Water): ~0 mg/mL
Final/Actual pH ([1]; 1% TW80 in Water): 7.6
Solubility <USP 34> ([1]; 1% TW80 in Water): Practically
[Compound 1] ([1]; 1% TW80 in Water): ~0 mg/mL
Final/Actual pH ([1]; 10% HP-β-CD in Water): 8.2
Solubility <USP 34> ([1]; 10% HP-β-CD in Water): Practically
[Compound 1] ([1]; 10% HP-β-CD in Water): ~0 mg/mL
Final/Actual pH ([1]; 100% Water): 8.3
Solubility <USP 34> ([1]; 100% Water): Practically
[Compound 1] ([1]; 100% Water): ~0 mg/mL

CCCN(Cc1ccc(-c2csc(N(C)C)n2)cc1)c1cc(C)nc2c(-c3cnc(N(C)C)cc3C)c(C)nn12 [Compound 1-1 (FB), 5-{7-[({4-[2-(dimethylamino)-1,3-thiazol-4-yl]phenyl}methyl)(propyl)amino]-2,5-dimethylpyrazolo[1,5-a]pyrimidin-3-yl}-N,N,4-trimethylpyridin-2-amine]
Solubility ([2]; 50 mM CB pH 3): 1.7 mg/mL FB
Measured pH ([2]; 50 mM CB pH 4): pH 4.1
Solubility ([2]; 50 mM CB pH 4): 0 mg/mL FB
Measured pH ([2]; 50 mM CB pH 5): pH 4.4
Solubility ([2]; 50 mM CB pH 5): 0 mg/mL FB
Measured pH ([2]; 50 mM CB pH 6): pH 6.1
Solubility ([2]; 50 mM CB pH 6): 0 mg/mL FB
Solubility ([2]; 50 mM PB pH 1): 14.9 mg/mL FB
Measured pH ([2]; 50 mM PB pH 2): pH 2.7
Solubility ([2]; 50 mM PB pH 2): 6.5 mg/mL FB
Measured pH ([2]; 50 mM PB pH 7): pH 7.0
Solubility ([2]; 50 mM PB pH 7): 0 mg/mL FB
Measured pH ([2]; 100% H2O): pH 6.7
Solubility ([2]; 100% H2O): 0 mg/mL FB

CCCN(Cc1ccc(-c2csc(N(C)C)n2)cc1)c1cc(C)nc2c(-c3cnc(N(C)C)cc3C)c(C)nn12 [Compound 1-2 (FB), 5-{7-[({4-[2-(dimethylamino)-1,3-thiazol-4-yl]phenyl}methyl)(propyl)amino]-2,5-dimethylpyrazolo[1,5-a]pyrimidin-3-yl}-N,N,4-trimethylpyridin-2-amine]
Measured pH ([2]; 50 mM CB pH 3): pH 3.3
Solubility ([2]; 50 mM CB pH 3): 1.7 mg/mL FB
Measured pH ([2]; 50 mM CB pH 4): pH 4.1
Solubility ([2]; 50 mM CB pH 4): 0 mg/mL FB
Measured pH ([2]; 50 mM CB pH 5): pH 5.0
Solubility ([2]; 50 mM CB pH 5): 0 mg/mL FB
Measured pH ([2]; 50 mM CB pH 6): pH 6.1
Solubility ([2]; 50 mM CB pH 6): 0 mg/mL FB
Measured pH ([2]; 50 mM PB pH 2): pH 3.1
Solubility ([2]; 50 mM PB pH 2): 3.3 mg/mL FB
Measured pH ([2]; 50 mM PB pH 7): pH 7.1
Solubility ([2]; 50 mM PB pH 7): 0 mg/mL FB
Measured pH ([2]; 50 mM PB pH 8): pH 8.1
Solubility ([2]; 50 mM PB pH 8): 0 mg/mL FB
Measured pH ([2]; 100% H2O): pH 8.3
Solubility ([2]; 100% H2O): 0 mg/mL FB

CCCN(Cc1ccc(-c2csc(N(C)C)n2)cc1)c1cc(C)nc2c(-c3cnc(N(C)C)cc3C)c(C)nn12 [Compound 1-3 (HCl), 5-{7-[({4-[2-(dimethylamino)-1,3-thiazol-4-yl]phenyl}methyl)(propyl)amino]-2,5-dimethylpyrazolo[1,5-a]pyrimidin-3-yl}-N,N,4-trimethylpyridin-2-amine]
Measured pH ([2]; 50 mM BB pH 9): pH 8.7
Solubility ([2]; 50 mM BB pH 9): Below
Measured pH ([2]; 50 mM CB pH 3): pH 3.2
Solubility ([2]; 50 mM CB pH 3): 0.8 mg/mL FB
Measured pH ([2]; 50 mM CB pH 4): pH 3.9
Solubility ([2]; 50 mM CB pH 4): 0 mg/mL FB
Measured pH ([2]; 50 mM CB pH 6): pH 5.8
Solubility ([2]; 50 mM CB pH 6): 0 mg/mL FB
Measured pH ([2]; 50 mM PB pH 2): pH 2.9
Solubility ([2]; 50 mM PB pH 2): 4.4 mg/mL FB
Measured pH ([2]; 50 mM PB pH 8): pH 7.5
Solubility ([2]; 50 mM PB pH 8): 0 mg/mL FB
Measured pH ([2]; 100% H2O): pH 3.3
Solubility ([2]; 100% H2O): 0.4 mg/mL FB
Solubility ([2]; ACN): 0.7 mg/mL FB
Solubility ([2]; Acetone): 0.4 mg/mL FB
Solubility ([2]; DMSO): 0.9 mg/mL FB
Solubility ([2]; EtOAc): 0.1 mg/mL FB
Solubility ([2]; EtOH): 5.3 mg/mL FB
Solubility ([2]; IPA): 0.8 mg/mL FB
Solubility ([2]; MeOH): 32.3 mg/mL FB

CCCN(Cc1ccc(-c2csc(N(C)C)n2)cc1)c1cc(C)nc2c(-c3cnc(N(C)C)cc3C)c(C)nn12 [Compound 1-4 (Maleate), 5-{7-[({4-[2-(dimethylamino)-1,3-thiazol-4-yl]phenyl}methyl)(propyl)amino]-2,5-dimethylpyrazolo[1,5-a]pyrimidin-3-yl}-N,N,4-trimethylpyridin-2-amine]
Measured pH ([2]; 50 mM BB pH 9): pH 4.3
Solubility ([2]; 50 mM BB pH 9): Below
Measured pH ([2]; 50 mM CB pH 3): pH 3.2
Solubility ([2]; 50 mM CB pH 3): 0.3 mg/mL FB
Measured pH ([2]; 50 mM CB pH 4): pH 3.9
Solubility ([2]; 50 mM CB pH 4): 0 mg/mL FB
Measured pH ([2]; 50 mM CB pH 6): pH 5.3
Solubility ([2]; 50 mM CB pH 6): Below
Measured pH ([2]; 50 mM PB pH 2): pH 2.5
Solubility ([2]; 50 mM PB pH 2): 3.9 mg/mL FB
Measured pH ([2]; 50 mM PB pH 8): pH 6.2
Solubility ([2]; 50 mM PB pH 8): Below
Measured pH ([2]; 100% H2O): pH 3.4
Solubility ([2]; 100% H2O): 0 mg/mL FB
Solubility ([2]; ACN): 3.6 mg/mL FB
Solubility ([2]; Acetone): 4.1 mg/mL FB
Solubility ([2]; DMSO): >2.5 mg/mL FB
Solubility ([2]; EtOAc): 1.2 mg/mL FB
Solubility ([2]; EtOH): 6.5 mg/mL FB
Solubility ([2]; IPA): 1.9 mg/mL FB
Solubility ([2]; MeOH): 27.1 mg/mL FB

CCCN(Cc1ccc(-c2csc(N(C)C)n2)cc1)c1cc(C)nc2c(-c3cnc(N(C)C)cc3C)c(C)nn12 [Compound 1-5 (Mesylate), 5-{7-[({4-[2-(dimethylamino)-1,3-thiazol-4-yl]phenyl}methyl)(propyl)amino]-2,5-dimethylpyrazolo[1,5-a]pyrimidin-3-yl}-N,N,4-trimethylpyridin-2-amine]
Measured pH ([2]; 50 mM BB pH 9): pH 3.2
Solubility ([2]; 50 mM BB pH 9): 0.2 mg/mL FB
Measured pH ([2]; 50 mM CB pH 3): pH 3.4
Solubility ([2]; 50 mM CB pH 3): 1.0 mg/mL FB
Measured pH ([2]; 50 mM CB pH 4): pH 4.0
Solubility ([2]; 50 mM CB pH 4): 0.1 mg/mL FB
Measured pH ([2]; 50 mM CB pH 6): pH 5.1
Solubility ([2]; 50 mM CB pH 6): 0 mg/mL FB
Measured pH ([2]; 50 mM PB pH 2): pH 3.0
Solubility ([2]; 50 mM PB pH 2): 4.7 mg/mL FB
Measured pH ([2]; 50 mM PB pH 8): pH 6.7
Solubility ([2]; 50 mM PB pH 8): 0 mg/mL FB
Measured pH ([2]; 100% H2O): pH 3.5
Solubility ([2]; 100% H2O): 0.8 mg/mL FB
Solubility ([2]; ACN): 3.1 mg/mL FB
Solubility ([2]; Acetone): 1.0 mg/mL FB
Solubility ([2]; DMSO): >2.1 mg/mL FB
Solubility ([2]; EtOAc): 0.6 mg/mL FB
Solubility ([2]; EtOH): 16.6 mg/mL FB
Solubility ([2]; IPA): 2.3 mg/mL FB
Solubility ([2]; MeOH): 134.4 mg/mL FB
